Measured values from article PMC3961306, “Comparison of the Cancer Gene Targeting and Biochemical Selectivities of All Targeted Kinase Inhibitors Approved for Clinical Use” (PLoS ONE, 2014).
Like-named read-outs stand apart in the source and are kept apart here.

Experiments:
[1] = biological target: T1, panel of more than 300 wild-type and mutant kinases (313 kinase panel) (Homo sapiens, UniProt Q16832); assay: Kinase profiling in a biochemical assay panel (mobility shift assays and ELISA), %-inhibition at 1 μM; selectivity entropy
T1 sequence (Q16832 22-855): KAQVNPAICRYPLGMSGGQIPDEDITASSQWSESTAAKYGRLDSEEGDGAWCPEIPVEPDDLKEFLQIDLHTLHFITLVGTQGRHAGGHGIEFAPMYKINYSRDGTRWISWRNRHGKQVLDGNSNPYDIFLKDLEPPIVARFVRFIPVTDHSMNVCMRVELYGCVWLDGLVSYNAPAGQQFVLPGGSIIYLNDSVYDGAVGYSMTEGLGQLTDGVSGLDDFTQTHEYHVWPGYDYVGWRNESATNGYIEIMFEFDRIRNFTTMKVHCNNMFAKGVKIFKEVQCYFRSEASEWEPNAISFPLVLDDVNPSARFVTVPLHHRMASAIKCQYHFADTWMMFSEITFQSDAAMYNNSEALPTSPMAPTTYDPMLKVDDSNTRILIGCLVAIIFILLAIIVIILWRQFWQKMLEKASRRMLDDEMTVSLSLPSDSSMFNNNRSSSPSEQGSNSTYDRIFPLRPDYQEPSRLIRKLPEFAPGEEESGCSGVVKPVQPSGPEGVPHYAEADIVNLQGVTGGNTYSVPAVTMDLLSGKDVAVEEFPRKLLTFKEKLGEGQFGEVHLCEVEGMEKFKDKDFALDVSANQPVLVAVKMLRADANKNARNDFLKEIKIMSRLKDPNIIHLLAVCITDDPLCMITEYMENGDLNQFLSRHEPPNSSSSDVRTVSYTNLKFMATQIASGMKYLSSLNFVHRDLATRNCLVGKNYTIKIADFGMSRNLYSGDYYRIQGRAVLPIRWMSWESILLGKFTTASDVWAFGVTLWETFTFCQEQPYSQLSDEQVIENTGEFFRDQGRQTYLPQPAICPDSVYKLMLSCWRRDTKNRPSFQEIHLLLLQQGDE

[2] = biological target: panel of more than 300 wild-type and mutant kinases (313 kinase panel) (Homo sapiens, UniProt P15056, V600E); assay: as above
[3] = biological target: T2, panel of more than 300 wild-type and mutant kinases (313 kinase panel) (Homo sapiens, UniProt P51955); assay: as above; conditions: 1 µM
T2 sequence (P51955 1-445): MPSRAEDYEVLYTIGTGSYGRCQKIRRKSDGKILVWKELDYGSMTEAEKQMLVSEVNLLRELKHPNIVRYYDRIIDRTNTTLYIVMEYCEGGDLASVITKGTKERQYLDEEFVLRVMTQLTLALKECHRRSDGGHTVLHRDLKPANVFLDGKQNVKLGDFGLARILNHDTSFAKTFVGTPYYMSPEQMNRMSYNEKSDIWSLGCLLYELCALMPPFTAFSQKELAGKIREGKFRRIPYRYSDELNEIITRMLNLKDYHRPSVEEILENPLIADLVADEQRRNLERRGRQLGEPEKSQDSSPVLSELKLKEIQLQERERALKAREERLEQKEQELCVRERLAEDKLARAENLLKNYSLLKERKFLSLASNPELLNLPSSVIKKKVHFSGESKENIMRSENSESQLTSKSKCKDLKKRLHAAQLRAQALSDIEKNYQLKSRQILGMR

[4] = biological target: panel of more than 300 wild-type and mutant kinases (313 kinase panel) (Homo sapiens, UniProt Q8TDX7); assay: as above
[5] = biological target: panel of more than 300 wild-type and mutant kinases (313 kinase panel) (Homo sapiens, UniProt P15056); assay: as above
[6] = test system: forty-four human cancer cell lines; assay: Cell proliferation assay (ATPlite, 72 hours) in the 44 cell line Oncolines panel; type: cell-based; conditions: Homo sapiens
[7] = biological target: panel of more than 300 wild-type and mutant kinases (313 kinase panel) (Homo sapiens, UniProt P09619); assay: Kinase profiling in a biochemical assay panel (mobility shift assays and ELISA), %-inhibition at 1 μM; selectivity entropy; conditions: kinase PDGFRβ; 1 μM
[8] = biological target: panel of more than 300 wild-type and mutant kinases (313 kinase panel) (Homo sapiens, UniProt P07947, T348I); assay: as above; conditions: kinase YES(T348I); compound at 1 μM
[9] = 4-4 cell, read-out: cell panel IC50, J82
[10] = 4-4 cell, read-out: cell panel IC50, PA-1
[11] = 4-4 cell, read-out: cell panel IC50, SJCRH30
[12] = 4-4 cell, read-out: cell panel IC50, SR
[13] = 769-P, read-out: cell panel IC50, 769-P
[14] = 786-0, read-out: cell panel IC50, 786-0
[15] = A 172, read-out: cell panel IC50, A-172
[16] = A204, read-out: cell panel IC50, A-204
[17] = A498, read-out: cell panel IC50, A-498
[18] = A-375, read-out: cell panel IC50, A375
[19] = AN3-CA, read-out: cell panel IC50, AN3 CA
[20] = AU565, read-out: cell panel IC50, AU-565
[21] = BT-20, read-out: cell panel IC50, BT-20
[22] = BXPC-3, read-out: cell panel IC50, BxPC-3
[23] = C-33-A, read-out: cell panel IC50, C-33 A
[24] = CAL-27, read-out: cell panel IC50, CAL 27
[25] = CCRF-CEM, read-out: cell panel IC50, CCRF-CEM
[26] = DLD-1, read-out: cell panel IC50, DLD-1
[27] = FaDu, read-out: cell panel IC50, FaDu
[28] = HCT-15, read-out: cell panel IC50, HCT-15
[29] = HCT-116, read-out: cell panel IC50, HCT-116
[30] = Hs-578T, read-out: cell panel IC50, Hs 578T
[31] = Jurkat E6.1, read-out: cell panel IC50, Jurkat E6.1
[32] = K562, read-out: cell panel IC50, K-562
[33] = LS174T, read-out: cell panel IC50, LS 174T
[34] = LoVo, read-out: cell panel IC50, LoVo
[35] = MG-63, read-out: cell panel IC50, MG-63
[36] = MOLT-4, read-out: cell panel IC50, MOLT-4
[37] = MeWo, read-out: cell panel IC50, MeWo
[38] = NCI-H82, read-out: cell panel IC50, NCI-H82
[39] = NCI-H460, read-out: cell panel IC50, NCI-H460
[40] = OVCAR-3, read-out: cell panel IC50, OVCAR-3
[41] = RPMI-7951, read-out: cell panel IC50, RPMI-7951
[42] = SHP77, read-out: cell panel IC50, SHP-77
[43] = SK-N-AS, read-out: cell panel IC50, SK-N-AS
[44] = SW48, read-out: cell panel IC50, SW48
[45] = SW480, read-out: cell panel IC50, SW480
[46] = SW-620, read-out: cell panel IC50, SW620
[47] = U2OS, read-out: cell panel IC50, U-2 OS
[48] = U-87 MG, 72 h, read-out: IC50 in cell proliferation assay (table S5 cellpanel data)

panel of more than 300 wild-type and mutant kinases (313 kinase panel) (Homo sapiens, UniProt P15056, V600E), sequence (P15056 whole entry V600E): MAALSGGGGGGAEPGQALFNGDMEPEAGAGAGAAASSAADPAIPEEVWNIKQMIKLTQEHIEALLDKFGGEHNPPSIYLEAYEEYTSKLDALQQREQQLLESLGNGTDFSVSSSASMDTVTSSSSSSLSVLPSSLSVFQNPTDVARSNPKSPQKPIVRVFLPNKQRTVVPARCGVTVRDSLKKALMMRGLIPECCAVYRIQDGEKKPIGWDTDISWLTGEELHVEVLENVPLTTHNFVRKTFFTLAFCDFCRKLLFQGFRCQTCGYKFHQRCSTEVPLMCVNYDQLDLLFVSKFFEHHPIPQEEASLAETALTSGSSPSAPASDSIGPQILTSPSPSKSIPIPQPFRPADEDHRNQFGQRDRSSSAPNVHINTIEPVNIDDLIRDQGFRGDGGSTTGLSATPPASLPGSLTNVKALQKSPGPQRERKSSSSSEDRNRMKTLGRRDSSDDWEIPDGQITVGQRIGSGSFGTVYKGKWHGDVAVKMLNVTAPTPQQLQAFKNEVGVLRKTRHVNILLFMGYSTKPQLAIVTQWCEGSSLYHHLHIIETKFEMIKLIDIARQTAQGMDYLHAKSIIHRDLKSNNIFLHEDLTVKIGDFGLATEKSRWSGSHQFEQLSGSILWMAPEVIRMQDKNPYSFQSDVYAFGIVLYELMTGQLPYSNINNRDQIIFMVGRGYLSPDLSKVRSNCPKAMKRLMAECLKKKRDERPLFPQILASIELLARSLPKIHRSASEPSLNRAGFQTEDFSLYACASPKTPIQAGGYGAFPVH
panel of more than 300 wild-type and mutant kinases (313 kinase panel) (Homo sapiens, UniProt P15056), sequence (P15056 whole entry, change not shown): as the sequence (P15056 whole entry V600E) above, with E600V counted along it
panel of more than 300 wild-type and mutant kinases (313 kinase panel) (Homo sapiens, UniProt P07947, T348I), sequence (P07947 whole entry T348I): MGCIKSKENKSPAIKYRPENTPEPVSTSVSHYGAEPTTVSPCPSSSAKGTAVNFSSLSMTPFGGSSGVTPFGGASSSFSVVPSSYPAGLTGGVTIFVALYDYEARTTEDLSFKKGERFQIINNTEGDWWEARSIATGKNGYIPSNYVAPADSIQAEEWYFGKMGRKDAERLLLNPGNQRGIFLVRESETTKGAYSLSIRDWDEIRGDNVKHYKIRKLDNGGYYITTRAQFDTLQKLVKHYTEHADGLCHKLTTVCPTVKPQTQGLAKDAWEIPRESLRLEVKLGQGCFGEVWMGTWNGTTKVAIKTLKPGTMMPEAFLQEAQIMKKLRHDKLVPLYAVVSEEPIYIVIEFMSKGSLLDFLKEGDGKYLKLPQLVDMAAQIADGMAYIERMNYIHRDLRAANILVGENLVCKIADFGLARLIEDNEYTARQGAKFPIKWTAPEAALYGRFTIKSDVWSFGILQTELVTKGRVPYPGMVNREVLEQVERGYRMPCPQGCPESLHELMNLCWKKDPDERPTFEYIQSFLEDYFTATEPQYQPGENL

Question: What does the source list for C#Cc1cccc(Nc2ncnc3cc(OCCOC)c(OCCOC)cc23)c1 [erlotinib]?
Answer: %-inhibition of DDR2 ([1]; 1 µM): 43%; %-inhibition, BRAF(V600E) ([2]; 1 µM): 8%; %-inhibition of NEK2 [3]: -0.556%; %-inhibition of NEK7 ([4]; 1 µM): 0.893%; %-inhibition, BRAF ([5]; 1 µM): 14%; IC50 [6, 9]: 4.54 µM; IC50 [6, 10]: 4.07 µM; IC50 [6, 11]: > 31.6 µM; IC50 [6, 12]: 4.23 µM; IC50 [6, 13]: 20.2 µM; IC50 [6, 14]: 6.13 µM; IC50 [6, 15]: > 31.6 µM; IC50 [6, 16]: 5.16 µM; IC50 [6, 17]: 4.97 µM; IC50 [6, 18]: 5.05 µM; IC50 ([6]; ACHN, read-out: cell panel IC50, ACHN): 1.37 µM; IC50 [6, 19]: 4.29 µM; IC50 [6, 20]: 2.74 µM; IC50 [6, 21]: > 31.6 µM; IC50 [6, 22]: 4.21 µM; IC50 [6, 23]: 0.865 µM; IC50 [6, 24]: 0.256 µM; IC50 [6, 25]: > 31.6 µM; IC50 [6, 26]: 3.87 µM; IC50 [6, 27]: 1.16 µM; IC50 [6, 28]: 6.31 µM; IC50 [6, 29]: 8.12 µM; IC50 [6, 30]: 7.12 µM; IC50 [6, 31]: 22.6 µM; IC50 [6, 32]: 7.05 µM; IC50 [6, 33]: 3.27 µM; IC50 [6, 34]: 2.24 µM; IC50 [6, 35]: 13.3 µM; IC50 [6, 36]: 6.34 µM; IC50 [6, 37]: 9.02 µM; IC50 [6, 38]: 20.1 µM; IC50 [6, 39]: 5.53 µM; IC50 [6, 40]: 5.46 µM; IC50 [6, 41]: > 31.6 µM; IC50 [6, 42]: > 31.6 µM; IC50 [6, 43]: 5.84 µM; IC50 [6, 44]: > 31.6 µM; IC50 [6, 45]: > 31.6 µM; IC50 [6, 46]: 6.41 µM; IC50 [6, 47]: > 31.6 µM; IC50 [6, 48]: > 31.6 µM

Question: Cc1ccc(C(=O)Nc2ccc(CN3CCN(C)CC3)c(C(F)(F)F)c2)cc1C#Cc1cnc2cccnn12 [ponatinib] was tested. Which “%-inhibition of PDGFRβ” value [7] did it give?
Answer: 102%

Question: And the “%-inhibition of DDR2” value ([1]; kinase DDR2, compound at 1 μM)?
Answer: 101%

Question: And the “%-inhibition, BRAF(V600E)” value ([2]; kinase BRAF(V600E), 1 μM compound)?
Answer: 84%

Question: And the “%-inhibition of NEK7” value ([4]; kinase NEK7, 1 μM)?
Answer: -10%

Question: And the “%-inhibition, BRAF” value ([5]; kinase BRAF, 1 μM compound)?
Answer: 89%

Question: And the “%-inhibition of YES(T348I)” value [8]?
Answer: 96%

Question: What about the IC50 [6, 9] of the same compound?
Answer: 1.53 µM

Question: And the IC50 [6, 10]?
Answer: 0.814 µM

Question: And the IC50 [6, 11]?
Answer: 1.11 µM

Question: And the IC50 [6, 12]?
Answer: 0.836 µM

Question: What about the IC50 [6, 13] of the same compound?
Answer: 1.8 µM

Question: What about the IC50 [6, 14] of the same compound?
Answer: 1.87 µM

Question: What about the IC50 [6, 15] of the same compound?
Answer: 0.626 µM

Question: And the IC50 [6, 16]?
Answer: 0.092 µM

Question: What about the IC50 [6, 17] of the same compound?
Answer: 1.32 µM

Question: And the IC50 ([6]; A549, read-out: cell panel IC50, A-549)?
Answer: 1.15 µM

Question: And the IC50 [6, 18]?
Answer: 1.14 µM

Question: And the IC50 ([6]; A-427, read-out: cell panel IC50, A-427)?
Answer: 0.352 µM

Question: And the IC50 [6, 19]?
Answer: 0.124 µM

Question: And the IC50 [6, 20]?
Answer: 1.42 µM

Question: What about the IC50 [6, 21] of the same compound?
Answer: 5.12 µM

Question: What about the IC50 ([6]; BT-549, read-out: cell panel IC50, BT-549) of the same compound?
Answer: 1.85 µM

Question: And the IC50 [6, 22]?
Answer: 0.817 µM

Question: And the IC50 [6, 23]?
Answer: 1 µM

Question: What about the IC50 [6, 24] of the same compound?
Answer: 1.73 µM

Question: And the IC50 [6, 25]?
Answer: 2.25 µM

Question: And the IC50 [6, 26]?
Answer: 1.13 µM

Question: And the IC50 [6, 27]?
Answer: 1.11 µM

Question: What about the IC50 [6, 28] of the same compound?
Answer: 0.913 µM

Question: What about the IC50 [6, 29] of the same compound?
Answer: 1.21 µM

Question: What about the IC50 [6, 30] of the same compound?
Answer: 1.18 µM

Question: What about the IC50 [6, 31] of the same compound?
Answer: 0.403 µM

Question: And the IC50 [6, 32]?
Answer: 0.0065 µM

Question: What about the IC50 [6, 33] of the same compound?
Answer: 2.05 µM

Question: What about the IC50 [6, 34] of the same compound?
Answer: 0.38 µM

Question: And the IC50 [6, 35]?
Answer: 2.48 µM

Question: And the IC50 [6, 36]?
Answer: 0.977 µM

Question: And the IC50 [6, 37]?
Answer: 2.22 µM

Question: What about the IC50 [6, 38] of the same compound?
Answer: 1.1 µM

Question: And the IC50 [6, 39]?
Answer: 1.43 µM

Question: And the IC50 [6, 40]?
Answer: 2.95 µM

Question: What about the IC50 [6, 41] of the same compound?
Answer: 1.15 µM

Question: What about the IC50 [6, 42] of the same compound?
Answer: 6.49 µM

Question: What about the IC50 [6, 43] of the same compound?
Answer: 1.08 µM

Question: And the IC50 [6, 44]?
Answer: 1.55 µM

Question: And the IC50 [6, 45]?
Answer: 2.17 µM

Question: And the IC50 [6, 46]?
Answer: 0.799 µM

Question: And the IC50 [6, 47]?
Answer: 1.11 µM

Question: And the IC50 [6, 48]?
Answer: 3.1 µM
